The record followed here is ChEMBL document CHEMBL5291721, “A preclinical secondary pharmacology resource illuminates target-adverse drug reaction associations of marketed drugs” (Nat Commun, 2023).

Some targets named below: D(1A) dopamine receptor (Homo sapiens, UniProt P21728); Histamine H3 receptor (Homo sapiens, UniProt Q9Y5N1); Mu-type opioid receptor (Homo sapiens, UniProt P35372).
The next experiment concerns the target Acetylcholinesterase (Homo sapiens, UniProt P22303). It is filed as functional.
The target in experiment [1] is T1, Alpha-1A adrenergic receptor (Homo sapiens, UniProt P35348).
T1 sequence (P35348 whole entry): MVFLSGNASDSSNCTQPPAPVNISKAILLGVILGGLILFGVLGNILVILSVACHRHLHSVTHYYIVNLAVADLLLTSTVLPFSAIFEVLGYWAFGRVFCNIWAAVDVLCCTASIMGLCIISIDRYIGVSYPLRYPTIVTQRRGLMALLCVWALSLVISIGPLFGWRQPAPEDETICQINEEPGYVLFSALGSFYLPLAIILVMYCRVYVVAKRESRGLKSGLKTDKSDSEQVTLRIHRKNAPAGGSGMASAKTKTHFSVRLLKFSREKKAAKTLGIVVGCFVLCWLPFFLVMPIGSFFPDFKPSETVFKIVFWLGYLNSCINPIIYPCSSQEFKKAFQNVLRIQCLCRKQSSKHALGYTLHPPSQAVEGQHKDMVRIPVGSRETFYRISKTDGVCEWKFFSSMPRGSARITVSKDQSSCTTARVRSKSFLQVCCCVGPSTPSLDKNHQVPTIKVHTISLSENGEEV
The class given is functional, cell-based.

The target in experiment [2] is T2, Alpha-2A adrenergic receptor (Homo sapiens, UniProt P08913).
T2 sequence (P08913 whole entry): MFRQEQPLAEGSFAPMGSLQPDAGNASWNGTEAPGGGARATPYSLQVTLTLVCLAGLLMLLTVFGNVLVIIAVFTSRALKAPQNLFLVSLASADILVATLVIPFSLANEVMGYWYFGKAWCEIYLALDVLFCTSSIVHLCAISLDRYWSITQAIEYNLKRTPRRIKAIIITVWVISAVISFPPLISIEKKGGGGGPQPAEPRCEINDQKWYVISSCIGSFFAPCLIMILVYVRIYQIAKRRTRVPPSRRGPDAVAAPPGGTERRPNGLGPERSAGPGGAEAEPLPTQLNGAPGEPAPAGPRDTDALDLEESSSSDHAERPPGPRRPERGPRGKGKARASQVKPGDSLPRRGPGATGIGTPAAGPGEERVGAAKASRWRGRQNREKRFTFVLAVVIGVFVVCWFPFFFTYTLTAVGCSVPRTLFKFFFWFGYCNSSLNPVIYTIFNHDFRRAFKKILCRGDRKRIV

For experiment [3], the target named is T3, 5-hydroxytryptamine receptor 1A (Homo sapiens, UniProt P08908).
T3 sequence (P08908 whole entry): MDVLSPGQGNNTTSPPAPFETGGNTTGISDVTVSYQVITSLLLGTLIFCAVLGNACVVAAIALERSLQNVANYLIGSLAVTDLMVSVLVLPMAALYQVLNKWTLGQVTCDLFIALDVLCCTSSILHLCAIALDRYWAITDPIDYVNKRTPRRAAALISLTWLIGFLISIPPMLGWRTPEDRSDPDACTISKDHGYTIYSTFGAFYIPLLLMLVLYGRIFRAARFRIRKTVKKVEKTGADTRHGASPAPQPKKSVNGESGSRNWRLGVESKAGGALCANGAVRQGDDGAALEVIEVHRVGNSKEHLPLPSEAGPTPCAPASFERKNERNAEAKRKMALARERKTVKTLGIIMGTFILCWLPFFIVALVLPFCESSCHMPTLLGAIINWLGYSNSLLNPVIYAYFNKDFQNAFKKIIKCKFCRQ

In experiment [4] the target is 5-hydroxytryptamine receptor 2B (Homo sapiens, UniProt P41595). It is filed as functional, cell-based.
5-hydroxytryptamine receptor 2B, sequence (P41595 whole entry): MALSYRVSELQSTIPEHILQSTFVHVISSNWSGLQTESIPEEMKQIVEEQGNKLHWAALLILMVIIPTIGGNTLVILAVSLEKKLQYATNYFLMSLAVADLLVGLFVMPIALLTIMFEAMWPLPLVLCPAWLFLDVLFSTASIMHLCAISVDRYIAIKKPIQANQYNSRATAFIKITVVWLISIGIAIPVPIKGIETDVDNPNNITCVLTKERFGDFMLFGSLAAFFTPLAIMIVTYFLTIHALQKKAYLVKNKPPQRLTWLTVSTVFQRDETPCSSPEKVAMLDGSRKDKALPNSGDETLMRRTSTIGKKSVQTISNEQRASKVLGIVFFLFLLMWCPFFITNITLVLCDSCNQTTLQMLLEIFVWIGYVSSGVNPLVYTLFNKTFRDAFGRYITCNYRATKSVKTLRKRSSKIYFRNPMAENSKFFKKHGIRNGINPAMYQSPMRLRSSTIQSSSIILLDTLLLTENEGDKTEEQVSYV
For experiment [5], the target named is Voltage-gated inwardly rectifying potassium channel KCNH2 (Homo sapiens, UniProt Q12809). It is filed as functional.
Voltage-gated inwardly rectifying potassium channel KCNH2, sequence (Q12809 whole entry): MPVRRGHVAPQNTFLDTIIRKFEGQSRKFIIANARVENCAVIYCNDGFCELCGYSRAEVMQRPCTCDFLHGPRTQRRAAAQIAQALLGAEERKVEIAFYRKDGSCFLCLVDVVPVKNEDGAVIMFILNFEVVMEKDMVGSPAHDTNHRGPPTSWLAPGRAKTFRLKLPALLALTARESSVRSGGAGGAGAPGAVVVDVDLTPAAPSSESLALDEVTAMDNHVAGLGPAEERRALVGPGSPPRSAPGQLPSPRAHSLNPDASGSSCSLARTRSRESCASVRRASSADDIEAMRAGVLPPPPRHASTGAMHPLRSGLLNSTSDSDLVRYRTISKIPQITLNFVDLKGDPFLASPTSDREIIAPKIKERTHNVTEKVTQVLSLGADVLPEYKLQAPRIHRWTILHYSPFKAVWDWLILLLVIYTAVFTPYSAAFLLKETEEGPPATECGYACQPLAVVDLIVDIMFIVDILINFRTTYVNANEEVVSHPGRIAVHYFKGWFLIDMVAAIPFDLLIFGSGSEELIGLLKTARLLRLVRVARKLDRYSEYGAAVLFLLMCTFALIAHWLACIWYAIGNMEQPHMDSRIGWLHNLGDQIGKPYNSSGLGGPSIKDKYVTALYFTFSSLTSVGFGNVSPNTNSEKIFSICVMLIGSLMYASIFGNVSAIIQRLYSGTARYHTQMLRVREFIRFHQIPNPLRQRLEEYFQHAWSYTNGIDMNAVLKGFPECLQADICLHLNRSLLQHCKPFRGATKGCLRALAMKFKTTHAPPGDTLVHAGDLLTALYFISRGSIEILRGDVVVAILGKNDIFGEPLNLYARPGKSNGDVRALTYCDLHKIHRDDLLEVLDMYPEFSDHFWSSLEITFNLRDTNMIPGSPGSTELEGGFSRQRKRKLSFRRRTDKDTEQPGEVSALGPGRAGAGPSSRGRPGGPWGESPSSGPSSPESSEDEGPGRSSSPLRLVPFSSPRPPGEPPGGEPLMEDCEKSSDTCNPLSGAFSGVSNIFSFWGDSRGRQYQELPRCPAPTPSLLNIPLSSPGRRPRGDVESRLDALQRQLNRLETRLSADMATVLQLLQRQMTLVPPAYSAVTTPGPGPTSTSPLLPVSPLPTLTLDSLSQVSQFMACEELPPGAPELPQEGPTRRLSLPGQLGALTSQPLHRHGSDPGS
The target of experiment [6] is T4, Amine oxidase [flavin-containing] A (Homo sapiens, UniProt P21397).
T4 sequence (P21397 whole entry): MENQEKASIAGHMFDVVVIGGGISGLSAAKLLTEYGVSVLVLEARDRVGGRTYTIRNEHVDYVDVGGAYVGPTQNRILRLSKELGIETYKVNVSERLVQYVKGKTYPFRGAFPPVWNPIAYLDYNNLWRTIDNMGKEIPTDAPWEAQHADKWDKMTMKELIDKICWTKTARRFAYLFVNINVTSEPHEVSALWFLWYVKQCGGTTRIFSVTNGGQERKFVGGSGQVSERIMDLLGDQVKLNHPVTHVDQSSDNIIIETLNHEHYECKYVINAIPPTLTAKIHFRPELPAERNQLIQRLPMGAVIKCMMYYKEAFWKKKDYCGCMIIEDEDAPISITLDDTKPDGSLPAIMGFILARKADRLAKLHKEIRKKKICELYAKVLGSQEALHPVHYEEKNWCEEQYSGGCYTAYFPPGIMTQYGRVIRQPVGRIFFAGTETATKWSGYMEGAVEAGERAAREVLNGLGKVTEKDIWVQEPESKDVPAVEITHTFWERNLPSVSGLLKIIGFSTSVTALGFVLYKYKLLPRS
It is filed as functional.

Experiment [7] deals with cGMP-inhibited 3',5'-cyclic phosphodiesterase 3A (Homo sapiens, UniProt Q14432). The class given is functional.
Experiment [8] has as its target 3',5'-cyclic-AMP phosphodiesterase 4A (Homo sapiens, UniProt P27815). It is filed as functional.
Experiment [9] concerns the target T5, Prostaglandin G/H synthase 1 (Homo sapiens, UniProt P23219). It is filed as functional.
Experiment [10] has as its target T5, Prostaglandin G/H synthase 1. It is filed as functional. This is another data set of the same source.
Experiment [11] concerns the target Sodium-dependent dopamine transporter (Homo sapiens, UniProt Q01959).
The target in the next experiment is T6, Thromboxane A2 receptor (Homo sapiens, UniProt P21731).
T6 sequence (P21731 whole entry): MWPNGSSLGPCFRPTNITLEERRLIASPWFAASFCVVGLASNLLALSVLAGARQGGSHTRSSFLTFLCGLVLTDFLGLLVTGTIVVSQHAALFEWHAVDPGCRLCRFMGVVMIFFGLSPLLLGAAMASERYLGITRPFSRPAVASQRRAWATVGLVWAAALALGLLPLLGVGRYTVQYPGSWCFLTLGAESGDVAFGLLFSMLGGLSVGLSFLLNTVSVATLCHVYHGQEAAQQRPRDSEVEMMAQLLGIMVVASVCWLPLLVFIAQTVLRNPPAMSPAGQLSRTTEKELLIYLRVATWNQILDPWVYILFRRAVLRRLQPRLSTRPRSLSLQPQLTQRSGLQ
It is filed as functional, cell-based.

Bounds are passed on as bounds.
Also: assay procedure not described here.

Sodium-dependent dopamine transporter, sequence (Q01959 whole entry): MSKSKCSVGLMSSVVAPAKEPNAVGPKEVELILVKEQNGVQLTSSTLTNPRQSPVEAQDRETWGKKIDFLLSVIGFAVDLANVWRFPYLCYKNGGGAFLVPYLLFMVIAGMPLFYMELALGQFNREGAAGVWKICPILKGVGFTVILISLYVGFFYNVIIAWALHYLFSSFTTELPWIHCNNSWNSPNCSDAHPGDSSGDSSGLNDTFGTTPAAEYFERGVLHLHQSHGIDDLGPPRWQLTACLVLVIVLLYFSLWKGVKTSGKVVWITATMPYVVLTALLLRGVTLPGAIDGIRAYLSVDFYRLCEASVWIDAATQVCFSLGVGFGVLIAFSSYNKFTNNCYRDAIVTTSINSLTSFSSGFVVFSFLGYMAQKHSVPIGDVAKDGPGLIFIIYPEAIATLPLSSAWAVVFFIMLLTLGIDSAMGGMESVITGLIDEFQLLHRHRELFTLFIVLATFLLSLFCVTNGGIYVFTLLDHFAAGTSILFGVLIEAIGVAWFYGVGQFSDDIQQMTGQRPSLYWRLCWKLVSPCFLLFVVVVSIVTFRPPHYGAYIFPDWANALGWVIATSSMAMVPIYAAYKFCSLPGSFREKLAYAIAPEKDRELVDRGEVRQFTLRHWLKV
D(1A) dopamine receptor, sequence (P21728 whole entry): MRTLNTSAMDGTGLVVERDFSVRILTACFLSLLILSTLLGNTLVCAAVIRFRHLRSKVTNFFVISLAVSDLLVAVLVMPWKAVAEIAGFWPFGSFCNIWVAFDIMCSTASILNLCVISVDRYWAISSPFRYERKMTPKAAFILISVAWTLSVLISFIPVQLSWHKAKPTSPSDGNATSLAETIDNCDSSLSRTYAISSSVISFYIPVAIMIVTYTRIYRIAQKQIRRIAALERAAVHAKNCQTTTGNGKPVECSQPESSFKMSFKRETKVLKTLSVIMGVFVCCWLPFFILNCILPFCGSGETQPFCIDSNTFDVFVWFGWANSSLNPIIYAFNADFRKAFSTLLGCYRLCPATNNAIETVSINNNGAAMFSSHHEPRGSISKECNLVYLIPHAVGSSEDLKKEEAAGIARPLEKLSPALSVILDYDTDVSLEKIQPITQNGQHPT
T5 sequence (P23219 whole entry): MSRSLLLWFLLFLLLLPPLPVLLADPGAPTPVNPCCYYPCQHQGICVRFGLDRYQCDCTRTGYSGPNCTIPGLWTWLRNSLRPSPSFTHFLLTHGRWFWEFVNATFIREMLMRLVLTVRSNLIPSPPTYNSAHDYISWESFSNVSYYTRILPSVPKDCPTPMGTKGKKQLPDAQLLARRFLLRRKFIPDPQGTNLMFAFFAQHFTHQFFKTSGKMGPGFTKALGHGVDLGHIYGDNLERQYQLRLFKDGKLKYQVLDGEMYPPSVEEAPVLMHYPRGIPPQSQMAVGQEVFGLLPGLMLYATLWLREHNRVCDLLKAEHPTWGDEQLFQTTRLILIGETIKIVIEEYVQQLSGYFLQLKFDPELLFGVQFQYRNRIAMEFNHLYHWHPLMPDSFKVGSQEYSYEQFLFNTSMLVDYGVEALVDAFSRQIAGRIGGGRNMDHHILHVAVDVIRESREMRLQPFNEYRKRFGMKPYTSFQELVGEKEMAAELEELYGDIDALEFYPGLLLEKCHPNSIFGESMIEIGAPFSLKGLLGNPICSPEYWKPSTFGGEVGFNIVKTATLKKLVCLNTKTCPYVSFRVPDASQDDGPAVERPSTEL
Acetylcholinesterase, sequence (P22303 whole entry): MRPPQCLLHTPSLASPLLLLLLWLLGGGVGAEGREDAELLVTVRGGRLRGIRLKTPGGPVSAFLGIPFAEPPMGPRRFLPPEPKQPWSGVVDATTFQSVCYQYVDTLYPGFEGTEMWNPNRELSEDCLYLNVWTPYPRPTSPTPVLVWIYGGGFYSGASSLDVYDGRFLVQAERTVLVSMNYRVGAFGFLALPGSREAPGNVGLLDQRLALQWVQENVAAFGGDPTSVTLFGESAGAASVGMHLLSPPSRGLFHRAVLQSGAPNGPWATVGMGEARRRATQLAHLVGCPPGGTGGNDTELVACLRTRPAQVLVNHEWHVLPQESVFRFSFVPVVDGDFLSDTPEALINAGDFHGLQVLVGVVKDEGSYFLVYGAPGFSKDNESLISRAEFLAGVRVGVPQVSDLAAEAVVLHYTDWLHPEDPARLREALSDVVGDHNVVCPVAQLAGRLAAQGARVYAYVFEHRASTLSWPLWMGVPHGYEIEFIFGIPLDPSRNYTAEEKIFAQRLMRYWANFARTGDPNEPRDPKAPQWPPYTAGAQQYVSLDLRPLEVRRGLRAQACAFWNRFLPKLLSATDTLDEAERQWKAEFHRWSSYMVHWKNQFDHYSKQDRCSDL
Histamine H3 receptor, sequence (Q9Y5N1 whole entry): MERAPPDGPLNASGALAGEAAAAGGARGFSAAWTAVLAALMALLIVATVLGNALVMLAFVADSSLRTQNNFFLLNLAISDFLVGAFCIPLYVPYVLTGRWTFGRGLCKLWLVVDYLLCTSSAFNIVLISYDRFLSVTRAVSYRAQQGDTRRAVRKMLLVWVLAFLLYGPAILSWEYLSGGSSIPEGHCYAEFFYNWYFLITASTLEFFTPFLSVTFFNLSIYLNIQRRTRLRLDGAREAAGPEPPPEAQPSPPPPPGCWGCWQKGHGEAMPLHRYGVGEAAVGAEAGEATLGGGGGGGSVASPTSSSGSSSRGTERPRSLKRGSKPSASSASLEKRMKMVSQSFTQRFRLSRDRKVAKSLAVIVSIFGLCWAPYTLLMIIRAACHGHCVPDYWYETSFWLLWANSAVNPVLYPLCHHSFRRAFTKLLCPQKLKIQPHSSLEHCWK
Mu-type opioid receptor, sequence (P35372 whole entry): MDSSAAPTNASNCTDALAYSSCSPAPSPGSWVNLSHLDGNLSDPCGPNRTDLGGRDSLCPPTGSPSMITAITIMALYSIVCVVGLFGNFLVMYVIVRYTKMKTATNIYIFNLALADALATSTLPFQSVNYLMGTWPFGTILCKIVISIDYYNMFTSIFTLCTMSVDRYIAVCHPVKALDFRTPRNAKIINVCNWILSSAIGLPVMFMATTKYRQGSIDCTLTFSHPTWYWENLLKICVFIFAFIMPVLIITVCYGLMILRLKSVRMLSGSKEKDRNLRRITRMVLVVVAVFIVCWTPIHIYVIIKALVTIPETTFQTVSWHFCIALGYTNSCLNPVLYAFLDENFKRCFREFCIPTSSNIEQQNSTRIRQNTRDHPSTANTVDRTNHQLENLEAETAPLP

Usually AC50 stands for the midpoint of the concentration-response curve, whichever way the signal moves. Read a high AC50 as weaker potency. Regarding `CCNC(=O)/C=C(C)/C=C/C=C(C)/C=C/c1c(C)cc(OC)c(C)c1C` [MOTRETINIDE], the half-maximal activity concentration (AC50) (on Acetylcholinesterase; in [1]; in experiment [2]; at D(1A) dopamine receptor; on Histamine H3 receptor; in experiment [3]) was > 30 µM in each case. In addition, the AC50 in experiment [4] was > 30 µM; in [5] it was 5.7 µM; in [6], > 30 µM; at Mu-type opioid receptor, 28.4 µM; in experiment [7] it was > 30 µM; in [8], > 30 µM. In addition, the AC50 was 6.95 µM in experiment [9], 12 µM in experiment [10], > 10 µM in experiment [11] and > 30 µM on Thromboxane A2 receptor.

`C=CC(=O)Nc1cccc(Oc2nc(Nc3ccc(N4CCN(C)CC4)cc3)nc3ccsc23)c1` [OLMUTINIB]: the half-maximal activity concentration (AC50) on Acetylcholinesterase was > 30 µM; in [1], > 30 µM; in experiment [2] it was 0.881 µM; at D(1A) dopamine receptor, 3.81 µM; at Histamine H3 receptor, 0.94 µM; in experiment [3], 2.44 µM. Besides, the half-maximal activity concentration (AC50) in experiment [4] was > 30 µM; in experiment [5], 0.54 µM; in experiment [6], > 30 µM; on Mu-type opioid receptor it was 5.5 µM; in experiment [7] it was > 30 µM; in [8] it was 3.19 µM. The AC50 was > 30 µM in [9], > 30 µM in experiment [10], 0.0559 µM in experiment [11] and > 30 µM on Thromboxane A2 receptor.

In the case of `COc1ccc2[nH]c([S+]([O-])Cc3ncc(C)c(OC)c3C)nc2c1` (stereo not drawn) [OMEPRAZOLE], the half-maximal activity concentration (AC50) (on Acetylcholinesterase; in [1]; in experiment [2]; at D(1A) dopamine receptor; on Histamine H3 receptor; in experiment [3]) was > 30 µM each time. Further, the AC50 in experiment [4] was > 30 µM; in [5], 17 µM; in experiment [6], > 30 µM; on Mu-type opioid receptor it was 12 µM; in experiment [7], > 30 µM; in [8] it was > 30 µM. The half-maximal activity concentration (AC50) was 5.76 µM in experiment [9], > 30 µM in experiment [10], > 30 µM in experiment [11] and > 30 µM at Thromboxane A2 receptor.

`CCCCC1C(=O)N(c2ccccc2)N(c2ccc(O)cc2)C1=O` (stereo not drawn) [OXYPHENBUTAZONE ANHYDROUS]: the half-maximal activity concentration (AC50) (at Acetylcholinesterase; in [1]; in experiment [2]; on D(1A) dopamine receptor; on Histamine H3 receptor; in experiment [3]) was > 30 µM in each case. Besides, the AC50 (in [4]; in [5]; in experiment [6]; at Mu-type opioid receptor; in experiment [7]; in experiment [8]) was > 30 µM in each case. The concentration at half-maximal activity (AC50) in [9] was 7.8 µM; in experiment [10], 21.8 µM; in experiment [11], > 30 µM; on Thromboxane A2 receptor, > 30 µM.

With `O=C(O)CN(CCN(CC(=O)O)CC(=O)O)CCN(CC(=O)O)CC(=O)O` [PENTETIC ACID], the AC50 at Acetylcholinesterase is > 30 µM; in [1] it was > 30 µM; in experiment [2], 1.32 µM; on D(1A) dopamine receptor, 8.71 µM; at Histamine H3 receptor, 19.8 µM; in experiment [3] it was > 30 µM. Besides, the AC50 (in [4]; in [5]; in experiment [6]; on Mu-type opioid receptor; in experiment [7]; in experiment [8]) was > 30 µM each time. The half-maximal activity concentration (AC50) in [9] was > 30 µM; in experiment [10], > 30 µM; in experiment [11], 6.51 µM; at Thromboxane A2 receptor it was > 30 µM.

In the case of `Nc1cccc2c1C(=O)N(C1CCC(=O)NC1=O)C2=O` (stereo not drawn) [POMALIDOMIDE], the half-maximal activity concentration (AC50) (on Acetylcholinesterase; in experiment [1]; in [2]; at D(1A) dopamine receptor; at Histamine H3 receptor; in [3]) was > 30 µM each time. For the same compound, the AC50 (in experiment [4]; in experiment [5]; in [6]; at Mu-type opioid receptor; in experiment [7]; in [8]) was > 30 µM throughout. Moreover, the AC50 in experiment [9] was > 30 µM; in experiment [10] it was > 30 µM; in experiment [11], > 30 µM; at Thromboxane A2 receptor it was 26.7 µM.

Consider `C[Se]CC[C@H](N)C(=O)O` [SELENOMETHIONINE], for which the AC50 (at Acetylcholinesterase; in experiment [1]; in experiment [2]; on D(1A) dopamine receptor; on Histamine H3 receptor; in experiment [3]) was > 30 µM each time. Also, the concentration at half-maximal activity (AC50) (in experiment [4]; in experiment [5]; in experiment [6]; on Mu-type opioid receptor; in [7]; in experiment [8]) was > 30 µM throughout. For the same compound, the concentration at half-maximal activity (AC50) (in experiment [9]; in experiment [10]; in [11]; at Thromboxane A2 receptor) was > 30 µM each time.

Turning to `Cc1ccsc1C(=CCCN1CCC[C@@H](C(=O)O)C1)c1sccc1C` [TIAGABINE], the AC50 (on Acetylcholinesterase; in experiment [1]; in [2]; at D(1A) dopamine receptor; at Histamine H3 receptor; in experiment [3]) was > 30 µM in each case. Also, the concentration at half-maximal activity (AC50) in [4] is > 30 µM; in [5] it was > 30 µM; in experiment [6], > 30 µM; at Mu-type opioid receptor, > 30 µM; in experiment [7] it was > 30 µM; in experiment [8] it was 23.6 µM. Also, the AC50 in experiment [9] was 24.4 µM; in [10] it was > 30 µM; in [11], > 30 µM; on Thromboxane A2 receptor, > 30 µM.
